Like-named read-outs stand apart in the source and are kept apart here.
Legend:
β-alanine aminopeptidase [1] = conditions: Ralstonia pickettii; 1 strain tested; read after 22 to 24 hours
β-alanine aminopeptidase [2] = conditions: Citrobacter amalonaticus; 2 strains tested; read after 22 to 24 hours
β-alanine aminopeptidase [3] = conditions: Enterobacter cloacae; 2 strains tested; read after 22 to 24 hours
β-alanine aminopeptidase [4] = assay: APIZYM-type test strips with β-alanyl-β-naphthylamide; format: cell-based; conditions: Serratia fonticola; five strains
β-alanine aminopeptidase [5] = assay: as above; format: cell-based; conditions: Actinobacillus ureae; 1 strain
β-alanine aminopeptidase [6] = assay: as above; format: cell-based; conditions: Enterobacter sakazakii; five strains
β-alanine aminopeptidase [7] = assay: as above; format: cell-based; conditions: Moraxella lac. sp. liquefaciens; 7 strains
β-alanine aminopeptidase [8] = assay: as above; format: cell-based; conditions: Pseudomonas mendocina; five strains
β-alanine aminopeptidase [9] = assay: as above; format: cell-based; conditions: CDC IV C2; five strains
β-alanine aminopeptidase [10] = assay: as above; format: cell-based; conditions: Oligella ureolytica; 2 strains
β-alanine aminopeptidase [11] = assay: as above; format: cell-based; conditions: Proteus vulgaris; five strains
β-alanine aminopeptidase [12] = assay: as above; format: cell-based; conditions: Moraxella bovis; 4 strains

Compound	Number of negative results (β-alanine aminopeptidase [1])	Number positive results (β-alanine aminopeptidase [1])	Number of negative results (β-alanine aminopeptidase [2])	Number positive results (β-alanine aminopeptidase [2])	Number of negative results (β-alanine aminopeptidase [3])	Number positive results (β-alanine aminopeptidase [3])	β-alanine aminopeptidase activity, result (β-alanine aminopeptidase [4])	β-alanine aminopeptidase activity, result (β-alanine aminopeptidase [5])	β-alanine aminopeptidase activity, result (β-alanine aminopeptidase [6])	β-alanine aminopeptidase activity, result (β-alanine aminopeptidase [7])	β-alanine aminopeptidase activity, result (β-alanine aminopeptidase [8])	β-alanine aminopeptidase activity, result (β-alanine aminopeptidase [9])	β-alanine aminopeptidase activity, result (β-alanine aminopeptidase [10])	β-alanine aminopeptidase activity, result (β-alanine aminopeptidase [11])	β-alanine aminopeptidase activity, result (β-alanine aminopeptidase [12])
NCCC(=O)c1c(N)cc(Cl)c(O)c1Cl	1	0	2	0	2	0	–	–	–	–	–	–	–	–	–
β-alanyl-β-naphthylamide	–	–	–	–	–	–	negative	negative	negative	negative	positive	negative	negative	negative	negative
